Reference: ChEMBL document CHEMBL5653631, “A Potent and Selective ULK1 Inhibitor Suppresses Autophagy and Sensitizes Cancer Cells to Nutrient Stress” (iScience, 2018)

Tests used:
[1] = biological target: T1, SNF-related serine/threonine-protein kinase (Homo sapiens) (UniProt Q9NRH2); assay: Inhibition of human recombinant SNRK at 40 nM in presence of ATP by radiometric assay relative to control
T1 sequence (whole entry): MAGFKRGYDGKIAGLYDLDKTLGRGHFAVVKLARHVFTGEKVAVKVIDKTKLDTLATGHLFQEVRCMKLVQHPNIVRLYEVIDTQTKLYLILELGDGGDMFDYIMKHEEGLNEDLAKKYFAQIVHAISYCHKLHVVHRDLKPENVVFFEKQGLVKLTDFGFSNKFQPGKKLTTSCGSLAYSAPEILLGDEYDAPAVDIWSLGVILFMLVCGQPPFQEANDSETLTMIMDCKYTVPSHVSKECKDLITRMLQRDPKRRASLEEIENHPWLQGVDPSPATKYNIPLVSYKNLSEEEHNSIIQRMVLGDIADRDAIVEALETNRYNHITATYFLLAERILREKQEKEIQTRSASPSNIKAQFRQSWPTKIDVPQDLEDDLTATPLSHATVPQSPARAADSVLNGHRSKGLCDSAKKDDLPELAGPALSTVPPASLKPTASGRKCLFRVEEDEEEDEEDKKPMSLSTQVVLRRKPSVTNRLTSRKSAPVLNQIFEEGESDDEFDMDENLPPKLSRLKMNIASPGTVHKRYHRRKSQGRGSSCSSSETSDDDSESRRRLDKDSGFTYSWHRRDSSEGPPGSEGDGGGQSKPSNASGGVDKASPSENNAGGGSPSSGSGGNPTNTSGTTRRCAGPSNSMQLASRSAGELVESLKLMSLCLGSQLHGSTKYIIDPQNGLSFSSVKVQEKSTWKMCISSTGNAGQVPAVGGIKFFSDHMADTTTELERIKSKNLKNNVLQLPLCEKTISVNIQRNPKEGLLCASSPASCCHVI

[2] = biological target: Vascular endothelial growth factor receptor 1 (Homo sapiens) (UniProt P17948); assay: Inhibition of human recombinant FLT1 at 40 nM related to control ULK1
Chain of Vascular endothelial growth factor receptor 1 (Homo sapiens) (P17948 whole entry): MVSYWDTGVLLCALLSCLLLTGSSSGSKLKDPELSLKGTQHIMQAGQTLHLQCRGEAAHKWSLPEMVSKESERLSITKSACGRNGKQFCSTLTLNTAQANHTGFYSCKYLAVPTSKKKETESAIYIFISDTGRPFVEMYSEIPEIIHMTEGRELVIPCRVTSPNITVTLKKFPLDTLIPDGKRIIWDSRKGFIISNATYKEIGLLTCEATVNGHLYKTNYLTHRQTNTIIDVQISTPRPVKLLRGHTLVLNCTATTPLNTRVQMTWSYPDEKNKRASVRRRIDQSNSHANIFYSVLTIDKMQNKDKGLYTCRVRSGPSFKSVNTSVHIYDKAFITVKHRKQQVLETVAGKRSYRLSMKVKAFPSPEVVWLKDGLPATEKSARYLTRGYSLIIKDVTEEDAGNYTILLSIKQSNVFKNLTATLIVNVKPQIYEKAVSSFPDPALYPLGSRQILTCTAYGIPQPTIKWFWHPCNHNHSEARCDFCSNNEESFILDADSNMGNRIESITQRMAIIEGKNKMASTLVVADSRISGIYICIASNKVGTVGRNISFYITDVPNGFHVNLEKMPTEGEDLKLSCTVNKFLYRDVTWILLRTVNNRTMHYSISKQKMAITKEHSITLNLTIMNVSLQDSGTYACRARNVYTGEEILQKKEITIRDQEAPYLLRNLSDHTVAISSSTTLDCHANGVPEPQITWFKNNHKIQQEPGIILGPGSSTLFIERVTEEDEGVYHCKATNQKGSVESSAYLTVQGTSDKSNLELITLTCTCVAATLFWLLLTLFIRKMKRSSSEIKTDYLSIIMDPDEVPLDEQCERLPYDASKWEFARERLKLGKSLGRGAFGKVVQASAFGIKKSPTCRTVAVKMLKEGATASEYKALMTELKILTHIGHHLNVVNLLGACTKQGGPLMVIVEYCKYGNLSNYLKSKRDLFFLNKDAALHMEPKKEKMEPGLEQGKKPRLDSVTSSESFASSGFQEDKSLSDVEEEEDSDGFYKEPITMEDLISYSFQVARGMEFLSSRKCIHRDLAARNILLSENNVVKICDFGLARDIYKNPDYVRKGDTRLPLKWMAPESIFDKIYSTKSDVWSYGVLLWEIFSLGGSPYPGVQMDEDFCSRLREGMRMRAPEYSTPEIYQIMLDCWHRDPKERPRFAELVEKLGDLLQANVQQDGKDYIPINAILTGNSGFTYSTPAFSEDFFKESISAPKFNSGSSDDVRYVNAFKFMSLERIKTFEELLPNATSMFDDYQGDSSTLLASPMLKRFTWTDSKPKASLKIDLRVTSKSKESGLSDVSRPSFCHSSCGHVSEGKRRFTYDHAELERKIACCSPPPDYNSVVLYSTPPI

[3] = biological target: Serine/threonine-protein kinase mTOR (Homo sapiens) (UniProt P42345); assay: Inhibition of human recombinant FRAP at 40 nM related to control ULK1
[4] = biological target: T2, Ephrin type-B receptor 3 (Homo sapiens) (UniProt P54753); assay: Inhibition of human recombinant EphB3 at 15 nM in presence of ATP by radiometric assay relative to control
T2 sequence (whole entry): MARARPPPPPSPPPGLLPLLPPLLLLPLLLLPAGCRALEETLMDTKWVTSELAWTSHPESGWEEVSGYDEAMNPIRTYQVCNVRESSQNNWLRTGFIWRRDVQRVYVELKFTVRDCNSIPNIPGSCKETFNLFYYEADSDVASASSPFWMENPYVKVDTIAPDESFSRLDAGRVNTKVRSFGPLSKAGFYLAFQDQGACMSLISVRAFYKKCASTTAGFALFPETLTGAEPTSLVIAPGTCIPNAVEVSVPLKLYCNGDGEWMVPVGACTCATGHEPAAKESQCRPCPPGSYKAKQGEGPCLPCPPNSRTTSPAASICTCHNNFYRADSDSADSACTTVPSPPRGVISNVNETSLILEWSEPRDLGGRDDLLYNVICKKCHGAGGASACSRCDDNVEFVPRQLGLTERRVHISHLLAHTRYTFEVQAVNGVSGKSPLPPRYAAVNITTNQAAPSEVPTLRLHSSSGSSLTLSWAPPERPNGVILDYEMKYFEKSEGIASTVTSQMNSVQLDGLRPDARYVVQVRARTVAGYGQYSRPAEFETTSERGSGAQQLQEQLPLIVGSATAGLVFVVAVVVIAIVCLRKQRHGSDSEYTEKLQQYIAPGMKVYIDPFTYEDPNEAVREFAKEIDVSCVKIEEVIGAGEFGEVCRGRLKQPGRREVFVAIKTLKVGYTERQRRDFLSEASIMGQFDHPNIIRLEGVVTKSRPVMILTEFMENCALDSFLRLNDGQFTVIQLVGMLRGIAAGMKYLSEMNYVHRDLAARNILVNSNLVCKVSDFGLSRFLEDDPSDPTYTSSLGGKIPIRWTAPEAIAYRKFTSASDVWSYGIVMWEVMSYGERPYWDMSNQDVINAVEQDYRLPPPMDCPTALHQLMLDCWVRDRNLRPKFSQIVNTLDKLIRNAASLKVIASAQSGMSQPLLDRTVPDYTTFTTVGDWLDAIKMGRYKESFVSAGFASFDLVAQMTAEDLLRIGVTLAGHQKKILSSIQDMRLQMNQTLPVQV

[5] = biological target: T3, Serine/threonine-protein kinase ICK (Homo sapiens) (UniProt Q9UPZ9); assay: Inhibition of human recombinant ICK at 15 nM in presence of ATP by radiometric assay relative to control
T3 sequence (whole entry): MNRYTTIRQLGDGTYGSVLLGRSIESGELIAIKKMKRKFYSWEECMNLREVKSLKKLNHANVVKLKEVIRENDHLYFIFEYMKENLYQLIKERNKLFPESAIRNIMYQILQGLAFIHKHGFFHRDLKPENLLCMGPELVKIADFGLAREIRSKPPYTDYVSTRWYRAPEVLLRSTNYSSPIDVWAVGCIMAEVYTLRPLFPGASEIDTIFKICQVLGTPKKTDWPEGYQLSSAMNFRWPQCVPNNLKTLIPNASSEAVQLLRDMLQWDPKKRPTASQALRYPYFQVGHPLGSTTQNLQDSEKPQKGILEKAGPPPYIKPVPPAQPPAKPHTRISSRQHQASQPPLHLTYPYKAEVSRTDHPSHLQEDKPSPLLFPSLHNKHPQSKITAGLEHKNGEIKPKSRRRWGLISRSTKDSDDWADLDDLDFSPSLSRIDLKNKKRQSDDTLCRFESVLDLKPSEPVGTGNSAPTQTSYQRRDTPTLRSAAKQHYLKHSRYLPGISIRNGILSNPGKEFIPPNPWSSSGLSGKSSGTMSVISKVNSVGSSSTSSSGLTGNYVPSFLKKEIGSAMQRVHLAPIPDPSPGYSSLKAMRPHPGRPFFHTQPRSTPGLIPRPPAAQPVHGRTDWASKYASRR

[6] = biological target: Cyclin-dependent kinase 2 (Homo sapiens) (UniProt P24941); assay: Inhibition of human recombinant CDK2 at 15 nM related to control ULK1
[7] = biological target: Serine/threonine-protein kinase pim-1 (Homo sapiens) (UniProt P11309); assay: Inhibition of human recombinant PIM1 at 500 nM in presence of ATP by radiometric assay relative to control
Chain of Serine/threonine-protein kinase pim-1 (Homo sapiens) (P11309 whole entry, looked up): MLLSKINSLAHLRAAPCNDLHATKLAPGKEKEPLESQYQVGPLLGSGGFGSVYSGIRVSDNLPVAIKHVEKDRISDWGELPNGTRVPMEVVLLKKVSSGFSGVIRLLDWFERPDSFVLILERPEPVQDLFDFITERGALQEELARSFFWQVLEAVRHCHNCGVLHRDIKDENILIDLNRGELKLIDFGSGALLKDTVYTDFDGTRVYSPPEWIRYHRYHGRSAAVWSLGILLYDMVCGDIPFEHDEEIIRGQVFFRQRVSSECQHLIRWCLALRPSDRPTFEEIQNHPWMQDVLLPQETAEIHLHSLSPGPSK

[8] = biological target: Tyrosine-protein kinase CSK (Homo sapiens) (UniProt P41240); assay: Inhibition of human recombinant CSK at 500 nM related to control ULK1
Chain of Tyrosine-protein kinase CSK (Homo sapiens) (P41240 2-450 limits assumed): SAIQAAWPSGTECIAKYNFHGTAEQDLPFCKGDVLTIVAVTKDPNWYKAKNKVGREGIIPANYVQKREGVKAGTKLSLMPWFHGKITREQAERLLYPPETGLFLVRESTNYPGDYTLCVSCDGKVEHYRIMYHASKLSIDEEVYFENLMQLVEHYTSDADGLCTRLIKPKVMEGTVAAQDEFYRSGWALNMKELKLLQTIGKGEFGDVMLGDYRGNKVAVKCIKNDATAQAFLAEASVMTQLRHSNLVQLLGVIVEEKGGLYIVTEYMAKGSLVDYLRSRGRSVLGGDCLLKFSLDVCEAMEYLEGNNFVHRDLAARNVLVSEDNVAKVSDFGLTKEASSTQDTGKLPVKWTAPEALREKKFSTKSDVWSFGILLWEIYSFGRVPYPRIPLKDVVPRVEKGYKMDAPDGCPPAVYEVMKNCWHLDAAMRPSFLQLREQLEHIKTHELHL

O=C(N[C@@H](C1CC1)C(F)(F)F)c1cc(-c2cnn3cc(-c4ccc(F)cc4)cnc23)cs1
inhibition [1]: 0% | fold change (FC) [2]: 0.25 | fold change (FC) [3]: 0

CC(C)[C@H](NC(=O)c1cc(-c2cnn3cc(-c4ccc(OCCN5CCCCC5)cc4)cnc23)cs1)C(F)(F)F
inhibition [4]: 0% | inhibition [5]: 0% | fold change (FC) [6]: 0.01

CNC(=O)c1ccccc1Oc1nc(Nc2cc(OC)c(OC)c(OC)c2)ncc1Br
inhibition [7]: 2% | fold change (FC) [8]: 0.03
